Measured values: patent US20200131669A1, “CYCLIC PEPTIDE COMPOUND HAVING HIGH MEMBRANE PERMEABILITY, AND LIBRARY CONTAINING SAME” (Chugai Seiyaku Kabushiki Kaisha, priority 2017, published 2020)
Starred links: 1 amine or outer side, 2 acyl side, 3 side chain; linkers in the order of their positions; H or OH if unused. Positions of bridges follow the written chain, without caps; N, C: chain ends. Non-standard residues stand in square brackets, D forms with d. Residues, ends and D or L forms follow the SMILES beside them. *: point of attachment. Glu(NHSO2Me) = CS(=O)(=O)NC(=O)CC[C@H](N)C(=O)O; Phe(4-CF3) = N[C@@H](Cc1ccc(C(F)(F)F)cc1)C(=O)O; NMePhe(3-Cl) = CN[C@@H](Cc1cccc(Cl)c1)C(=O)O; hPhe(3-Cl) = N[C@@H](CCc1cccc(Cl)c1)C(=O)O; NMehPhe = CN[C@@H](CCc1ccccc1)C(=O)O; Hyp = O=C(O)[C@@H]1C[C@@H](O)CN1; NMeF = CN[C@@H](Cc1ccccc1)C(=O)O; NMeGABA = CN(CCCC(=O)[*:2])[*:1]; NMeI = CC[C@H](C)[C@H](NC)C(=O)O; dNMeF = CN[C@H](Cc1ccccc1)C(=O)O; NMeD = CN[C@@H](CC(=O)O)C(=O)O; NMeL = CN[C@@H](CC(C)C)C(=O)O; NMeV = CN[C@H](C(=O)O)C(C)C; NMeAbu = CC[C@H](NC)C(=O)O; NMeA = CN[C@@H](C)C(=O)O; Piperidide = C1CCN(*)CC1; Me2NCH2CH2 = CN(C)CC*; NBuGly = CCCCNCC(=O)O; Isopentyl = CC(C)CC*; X2 = Fc1cncc(C*)c1; Sar = CNCC(=O)O; tBu = CC(C)(C)*

assay: Caco-2 membrane permeability, improved method as used in the following Examples (96-well, 20 to 24 h preincubation); assay type: in vitro ADME; conditions: human, Caco-2, Caco-2
Summary of the method: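 Caco-2 monolayers were grown three weeks and preincubated 20–24 h at 37 °C with compound in DMEM+FaSSIF (1% DMSO) apically. The assay then used compound in FaSSIF/HBSS (1% DMSO, pH 6.0) apically and HBSS with 4% BSA (pH 7.4) basally. Basal samples were taken at 180 min for LC/MS, and Papp (cm/sec) was calculated.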

SMILES	Papp A→B at 180 min
CCCCN1CC(=O)N(C)[C@@H](Cc2ccccc2)C(=O)N[C@@H](CCC(=O)NS(C)(=O)=O)C(=O)N(C)[C@@H](CC(C)C)C(=O)N[C@@H](CC(C)C)C(=O)N(C)CC(=O)N(C)[C@@H](Cc2ccccc2)C(=O)N(C)[C@@H](CC(C)C)C(=O)N[C@@H](CC(C)C)C(=O)N(C)[C@@H](CC(C)C)C(=O)N[C@H](C(=O)N2CCCCC2)CC1=O [pd70] ([NBuGly][NMeF][Glu(NHSO2Me)][NMeL]L[Sar][NMeF][NMeL]L[NMeL]D-Piperidide; lactam N-11)	0.17 ×10⁻⁶ cm/s
CCO[C@@H]1C[C@H]2C(=O)N(C)[C@@H](C(C)C)C(=O)N[C@@H]([C@@H](C)O)C(=O)N(C)[C@@H](Cc3ccccc3)C(=O)N[C@@H](Cc3ccccc3)C(=O)N(C)[C@@H](CC(C)C)C(=O)N(C)[C@H](C(=O)N3CCCCC3)CC(=O)N3CCC[C@H]3C(=O)N(C)[C@@H](C(C)C)C(=O)N[C@@H](COC(C)(C)C)C(=O)N(C)[C@@H](CC(C)C)C(=O)N2C1 [pd376] (P[NMeV]S(tBu)[NMeL][Hyp](Et)[NMeV]T[NMeF]F[NMeL][NMeD]-Piperidide; lactam N-11)	2.4 ×10⁻⁶ cm/s
CC(C)C[C@@H]1NC(=O)[C@H](Cc2ccccc2)N(C)C(=O)[C@@H](CC(C)C)NC(=O)C[C@@H](C(=O)N2CCCCC2)NC(=O)[C@H](CC(C)C)N(C)C(=O)[C@H](Cc2ccccc2)N(C)C(=O)[C@H](COC(C)(C)C)NC(=O)[C@H](CC(C)C)N(C)C(=O)CN(C)C(=O)[C@H](CCC(=O)N(C)C)NC(=O)[C@H](CC(C)C)N(C)C1=O [pd441] ([dL][NMeF]L[NMeL]E(NMe2)[Sar][NMeL]S(tBu)[NMeF][NMeL]D-Piperidide; lactam N-11)	1.7 ×10⁻⁶ cm/s
CCO[C@@H]1C[C@H]2C(=O)N[C@H](C(=O)N3CCCCC3)CC(=O)N[C@@H](C(C)C)C(=O)NCC(=O)N(C)[C@@H](CC(C)C)C(=O)N(C)[C@@H](CC(C)C)C(=O)N(C)[C@@H](CC(C)C)C(=O)N(C)[C@@H](Cc3ccccc3)C(=O)N[C@@H]([C@@H](C)O)C(=O)N(C)[C@@H](Cc3ccccc3)C(=O)N(C)[C@@H](CC(C)C)C(=O)N2C1 [pd374] (VG[NMeL][NMeL][NMeL][NMeF]T[NMeF][NMeL][Hyp](Et)D-Piperidide; lactam N-11)	2.5 ×10⁻⁶ cm/s
CC(C)C[C@@H]1NC(=O)[C@H](CC(C)C)N(C)C(=O)CN(C)C(=O)[C@H]([C@@H](C)O)NC(=O)[C@H](CC(C)C)N(C)C(=O)[C@H](CCc2cccc(Cl)c2)NC(=O)[C@H](C)N(C)C(=O)[C@@H](C(C)C)NC(=O)C[C@@H](C(=O)N2CCCCC2)NC(=O)[C@H](C(C)C)N(C)C(=O)[C@H](Cc2ccccc2)N(C)C1=O [pd355] ([dV][NMeA][hPhe(3-Cl)][NMeL]T[Sar][NMeL]L[NMeF][NMeV]D-Piperidide; lactam N-11)	2.3 ×10⁻⁶ cm/s
CC[C@H](C)[C@@H]1NC(=O)[C@H](Cc2ccccc2)N(C)C(=O)CN(C)C(=O)C[C@@H](C(=O)N2CCCCC2)NC(=O)[C@H](CC(C)C)N(C)C(=O)[C@H](COC(C)(C)C)NC(=O)[C@H](CC(C)C)N(C)C(=O)[C@H](CCc2ccccc2)N(C)C(=O)CN(C)C(=O)[C@H]([C@@H](C)O)NC(=O)[C@H](CC(C)C)N(C)C1=O [pd324] ([Sar][NMeF]I[NMeL]T[Sar][NMehPhe][NMeL]S(tBu)[NMeL]D-Piperidide; lactam N-11)	3.3 ×10⁻⁶ cm/s
CCCCN1CC(=O)N(C)[C@@H](CC(C)C)C(=O)N[C@@H](CCC(=O)NS(C)(=O)=O)C(=O)N(C)[C@@H](Cc2cccc(Cl)c2)C(=O)N(C)[C@@H](C(C)C)C(=O)N[C@H](C(=O)N2CCCCC2)CC(=O)N[C@H](CC(C)C)C(=O)N(C)[C@@H](Cc2cccc(Cl)c2)C(=O)N[C@@H](CC(C)C)C(=O)N(C)[C@@H](CC)C(=O)N[C@@H]([C@@H](C)O)C1=O [pd61] ([dL][NMePhe(3-Cl)]L[NMeAbu]T[NBuGly][NMeL][Glu(NHSO2Me)][NMePhe(3-Cl)][NMeV]D-Piperidide; lactam N-11)	< 0.094 ×10⁻⁶ cm/s
CC[C@H](C)[C@H]1C(=O)N[C@@H]([C@@H](C)O)C(=O)N(C)CC(=O)N(C)[C@@H](C)C(=O)N[C@H](C(=O)N2CCCCC2)CC(=O)N(C)[C@@H](C)C(=O)N[C@@H](C(C)C)C(=O)N(C)[C@@H](CC(C)C)C(=O)N(C)[C@@H](Cc2ccccc2)C(=O)NC(COc2cccc(Cl)c2)C(=O)N(C)[C@@H](Cc2ccccc2)C(=O)N1C (stereo partly drawn) [pd345]	1.8 ×10⁻⁶ cm/s
CCCCN1CC(=O)N(C)[C@@H](CC(C)C)C(=O)N[C@@H](COC(C)(C)C)C(=O)N(C)[C@@H](Cc2ccccc2)C(=O)N(C)[C@@H](C(C)C)C(=O)N[C@H](C(=O)N2CCCCC2)CC(=O)N[C@H](C(C)C)C(=O)N(C)[C@@H](Cc2ccccc2)C(=O)N[C@@H](COCCN(C)C)C(=O)N(C)[C@@H](CC(C)C)C(=O)N[C@@H]([C@@H](C)O)C1=O [pd53] ([dV][NMeF]S(Me2NCH2CH2)[NMeL]T[NBuGly][NMeL]S(tBu)[NMeF][NMeV]D-Piperidide; lactam N-11)	0.14 ×10⁻⁶ cm/s
CC(C)CCOC[C@@H]1NC(=O)[C@H](CC(C)C)N(C)C(=O)CN(C)C(=O)[C@H]([C@@H](C)O)NC(=O)[C@H](CC(C)C)N(C)C(=O)[C@H](CC(C)C)NC(=O)[C@H](Cc2ccccc2)N(C)C(=O)[C@@H](C)NC(=O)C[C@@H](C(=O)N2CCCCC2)NC(=O)[C@H](CC(C)C)N(C)C(=O)[C@@H](Cc2ccccc2)N(C)C1=O [pd300] ([dA][NMeF]L[NMeL]T[Sar][NMeL]S(Isopentyl)[dNMeF][NMeL]D-Piperidide; lactam N-11)	1.9 ×10⁻⁶ cm/s
CC(C)CCOC[C@@H]1NC(=O)[C@H](CC(C)C)N(C)C(=O)CCCN(C)C(=O)C[C@@H](C(=O)N2CCCCC2)NC(=O)[C@H](CC(C)C)N(C)C(=O)[C@H](C)N(C)C(=O)[C@H]([C@@H](C)O)NC(=O)[C@H](CC(C)C)N(C)C(=O)[C@H](COC(C)(C)C)NC(=O)[C@H](Cc2ccccc2)N(C)C(=O)[C@H](Cc2ccccc2)N(C)C1=O [pd303] ([NMeGABA][NMeL]S(Isopentyl)[NMeF][NMeF]S(tBu)[NMeL]T[NMeA][NMeL]D-Piperidide; lactam N-11)	1 ×10⁻⁶ cm/s

same assay, conditions: human, Caco-2, Caco-2 (cm/sec)

SMILES	Papp A→B at 180 min
CC(C)C[C@H]1C(=O)N[C@@H](COC(C)(C)C)C(=O)N(C)[C@@H](Cc2ccccc2)C(=O)N(C)[C@@H](C)C(=O)N[C@H](C(=O)N2CCCCC2)CC(=O)N[C@H](C(C)C)C(=O)N(C)[C@@H](CC(C)C)C(=O)N[C@@H](Cc2ccc(C(F)(F)F)cc2)C(=O)N(C)[C@@H](CC(C)C)C(=O)N[C@@H]([C@@H](C)O)C(=O)N(C)CC(=O)N1C [pd138] ([dV][NMeL][Phe(4-CF3)][NMeL]T[Sar][NMeL]S(tBu)[NMeF][NMeA]D-Piperidide; lactam N-11)	2.6 ×10⁻⁶ cm/s
CC(C)C[C@H]1C(=O)N[C@@H]([C@@H](C)O)C(=O)N2CCC[C@H]2C(=O)N(C)[C@@H](C)C(=O)N[C@@H](Cc2ccc(C(F)(F)F)cc2)C(=O)N(C)[C@@H](CC(C)C)C(=O)N(C)[C@@H](CC(C)C)C(=O)N[C@H](C(=O)N2CCCCC2)CC(=O)N1C [pd136] ([NMeL]TP[NMeA][Phe(4-CF3)][NMeL][NMeL]D-Piperidide; lactam N-8)	1.6 ×10⁻⁶ cm/s
CC[C@H](C)[C@@H]1NC(=O)[C@H](CC(C)C)N(C)C(=O)CN(C)C(=O)C[C@@H](C(=O)N2CCCCC2)NC(=O)[C@H](C)N(C)C(=O)[C@H](COC(C)(C)C)NC(=O)[C@H](CC(C)C)N(C)C(=O)[C@H](CC(C)C)N(C)C(=O)CN(C)C(=O)[C@H](Cc2c[nH]c3ccccc23)NC(=O)[C@H](CC(C)C)N(C)C1=O [pd103] ([Sar][NMeL]I[NMeL]W[Sar][NMeL][NMeL]S(tBu)[NMeA]D-Piperidide; lactam N-11)	0.093 ×10⁻⁶ cm/s
CC[C@H](C)[C@H]1C(=O)N[C@@H]([C@@H](C)O)C(=O)N(C)CC(=O)N(C)[C@@H](CC(C)C)C(=O)N[C@H](C(=O)N2CCCCC2)CC(=O)N(C)[C@@H](C(C)C)C(=O)N[C@@H](COCc2cncc(F)c2)C(=O)N(C)[C@@H](CC(C)C)C(=O)N(C)[C@@H](Cc2ccccc2)C(=O)N[C@@H](CC(C)C)C(=O)N(C)[C@@H](Cc2ccccc2)C(=O)N1C [pd181] ([NMeV]S(X2)[NMeL][NMeF]L[NMeF][NMeI]T[Sar][NMeL]D-Piperidide; lactam N-11)	1.1 ×10⁻⁶ cm/s
CC(C)C[C@H]1C(=O)N(C)[C@@H](Cc2ccccc2)C(=O)N(C)[C@@H](CC(C)C)C(=O)N[C@H](C(=O)N(C)[C@@H](Cc2ccccc2)C(=O)N[C@@H](Cc2ccccc2)C(=O)N2CCCCC2)CC(=O)N[C@@H](C(C)C)C(=O)N[C@@H](C)C(=O)N[C@@H]([C@@H](C)O)C(=O)N(C)[C@@H](C)C(=O)N[C@@H](Cc2ccccc2)C(=O)N1C [pd241] (VAT[NMeA]F[NMeL][NMeF][NMeL]D[NMeF]F-Piperidide; lactam N-9)	0.058 ×10⁻⁶ cm/s
CC(C)C[C@@H]1NC(=O)[C@H](Cc2ccccc2)N(C)C(=O)[C@H]2CCCN2C(=O)C[C@@H](C(=O)N2CCCCC2)N(C)C(=O)[C@H](Cc2ccccc2)N(C)C(=O)[C@H](Cc2ccccc2)N(C)C(=O)[C@H](COC(C)(C)C)NC(=O)[C@H](C(C)C)N(C)C(=O)CN(C)C(=O)[C@H]([C@@H](C)O)NC(=O)[C@H](CC(C)C)N(C)C1=O [pd200] ([dP][NMeF]L[NMeL]T[Sar][NMeV]S(tBu)[NMeF][NMeF][NMeD]-Piperidide; lactam N-11)	2.6 ×10⁻⁶ cm/s
CC(C)C[C@@H]1NC(=O)[C@H](Cc2ccccc2)N(C)C(=O)[C@@H](C)NC(=O)C[C@@H](C(=O)N2CCCCC2)N(C)C(=O)[C@H](Cc2ccccc2)N(C)C(=O)[C@H](Cc2ccccc2)N(C)C(=O)[C@H](COC(C)(C)C)NC(=O)[C@H](CC(C)C)N(C)C(=O)CN(C)C(=O)[C@H]([C@@H](C)O)NC(=O)[C@H](CC(C)C)N(C)C1=O [pd224] ([dA][NMeF]L[NMeL]T[Sar][NMeL]S(tBu)[NMeF][NMeF][NMeD]-Piperidide; lactam N-11)	1 ×10⁻⁶ cm/s
